One may read the IC50 as the concentration that gives 50% inhibition.

Read-outs that look alike come from different tables or passages of the source. Bounds are passed on as bounds.

For 18 molecules, IC50 results are on record in US20150299143A1, “SUBSTITUTED TRIAZOLE AND IMIDAZOLE COMPOUNDS” (HOFFMANN-LA ROCHE INC., priority 2012, published 2015).

One assay deals with T1, β 1c (caspase-like) (Homo sapiens, UniProt P28072+Q99436).
T1 construct: protease activity associated with the proteasome complex in cultured cells; endogenous in cells; host or cells: Ramos cells
In words: Cell-Based Proteasome subunit activity/selectivity assay, β1c, substrate (LLE)2Rh110. A digest of the protocol: (§1)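 Subunit activity in cultured cells read with subunit-selective fluorogenic Rh110 substrates: (LLE)2 for β1c, (PAL)2 for β1i, (KQL)2 for β2c/2i, (WLA)2 for β5c. Cells exposed to 4-fold serially diluted compound (top 20 μM) 30 min at 37 °C, then substrate 120 min at room temperature; fluorescence 500/519 nm.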

The target of assay [1] is T2, β5c (chymotrypsin-like activity) (Homo sapiens, UniProt P20618+P28074).
T2 construct: protease activity associated with the proteasome complex in cultured cells; endogenous in cells; host or cells: Ramos cells
Put plainly: Cell-Based Proteasome subunit activity/selectivity assay, β5c, substrate (WLA)2Rh110. A digest of the protocol: as §1

The target of a further assay is T3, β 1i (caspase-like) (Homo sapiens, UniProt P28065+P40306).
T3 construct: protease activity associated with the proteasome complex in cultured cells; endogenous in cells; host or cells: Ramos cells
Put plainly: Cell-Based Proteasome subunit activity/selectivity assay, β1i, substrate (PAL)2Rh110. The method in brief:
as §1

For assay [2], the target named is T4, β 5i (chymotrypsin-like activity) (Homo sapiens, UniProt P20618+P28062).
T4 construct: protease activity associated with the proteasome complex in cultured cells; endogenous in cells; host or cells: Ramos cells
Put plainly: Cell-Based Proteasome subunit activity/selectivity assay, β5i, substrate (ANW)2Rh110. The following applies: Ramos cells; substrate (ANW)2Rh110 (β5i); highest concentration tested 20 μM; read-out: Ic50:ramos:ac-(anw)2-r110. A digest of the protocol:
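Cell-based fluorogenic assay measuring chymotrypsin-like β5i proteasome activity using the substrate (ANW)2Rh110. Cultured cells received 0.5 μl of 100× 4-fold serial diluted compounds or DMSO per well, were incubated 30 minutes at 37° C, then equilibrated 15 minutes at room temperature. After shaking one minute @ 700 rpm and 120 min room-temperature incubation, fluorescence was read at 500 nm excitation/519 nm emission on an Envision reader.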

In a further assay the test system is β 2c/2i (trypsin-like). In words: Cell-Based Proteasome subunit activity/selectivity assay, β2c/2i, substrate (KQL)2Rh110. The following applies: Ramos cells; substrate (KQL)2Rh110 (β2c/2i); highest concentration tested 20 μM. The method in brief:
as §1

Setting [3] is: Ramos cells, substrate (LLE)2Rh110 (β1c), highest concentration tested 20 μM, read-out: Ic50:ramos:rh110-(lle)2.
Setting [4] is: Ramos cells, substrate (WLA)2Rh110 (β5c), highest concentration tested 20 μM, read-out: Ic50:ramos:rh110-(wla)2.
The mark [5] stands for this setting: Ramos cells, substrate (PAL)2Rh110 (β1i), highest concentration tested 20 μM, read-out: Ic50:ramos:rh110-(pal)2.

For the molecule `COC(=O)[C@H](Cc1cc2ccccc2[nH]1)NC(=O)c1cn(CCNC(=O)c2ccc(C(F)(F)F)cc2F)nn1` [Example 84, (S)-2-({1-[2-(2-Fluoro-4-trifluoromethyl-benzoylamino)-ethyl]-1H-[1,2,3]triazole-4-carbonyl}-amino)-3-(1H-indol-2-yl)-propionic acid methyl ester], the IC50 was at least 20 µM on β 1c (caspase-like) (setting [3]); at least 20 µM in assay [1] (setting [4]); at least 20 µM at β 1i (caspase-like) (setting [5]); 162 nM in assay [2]; at least 20 µM in the assay with β 2c/2i (trypsin-like).

Consider `COc1ccc(C(=O)NCCn2cc(C(=O)NC(C#N)c3cccc(SC)c3)nn2)c(OC)c1OC` (stereo not drawn) [Example 55, 1-[2-(2,3,4-Trimethoxy-benzoylamino)-ethyl]-1H-[1,2,3]triazole-4-carboxylic acid [cyano-(3-methylsulfanyl-phenyl)-methyl]-amide], for which the IC50 at β 1c (caspase-like) (setting [3]) is at least 20 µM; in assay [1] (setting [4]), at least 20 µM; at β 1i (caspase-like) (setting [5]), at least 20 µM; in assay [2] it was 4020 nM; in the assay with β 2c/2i (trypsin-like) it was at least 20 µM.

For the molecule `CCc1ccc(C(C#N)NC(=O)c2cn(CCNC(=O)CC3Cc4ccccc4C3)nn2)cc1` (stereo not drawn) [Example 9, 1-[2-(2-Indan-2-yl-acetylamino)-ethyl]-1H-[1,2,3]triazole-4-carboxylic acid [cyano-(4-ethyl-phenyl)-methyl]-amide], the IC50 on β 1c (caspase-like) (setting [3]) is at least 20 µM; in assay [1] (setting [4]) it was at least 20 µM; at β 1i (caspase-like) (setting [5]) it was at least 20 µM; in assay [2], 4290 nM; with β 2c/2i (trypsin-like) it was at least 20 µM.

For `CCc1ccc(C(C#N)NC(=O)c2cn(CCNC(=O)c3ccccc3OC(F)(F)F)nn2)cc1` (stereo not drawn) [Example 24, 1-[2-(2-Trifluoromethoxy-benzoylamino)-ethyl]-1H-[1,2,3]triazole-4-carboxylic acid [cyano-(4-ethyl-phenyl)-methyl]-amide], the IC50 is at least 20 µM at β 1c (caspase-like) (setting [3]); at least 20 µM in assay [1] (setting [4]); at least 20 µM at β 1i (caspase-like) (setting [5]); 779 nM in assay [2]; at least 20 µM in the assay with β 2c/2i (trypsin-like).

Turning to `CCc1ccc(C(C#N)NC(=O)c2cn(CCNC(=O)c3cc(Cl)ccc3Cl)nn2)cc1` (stereo not drawn) [Example 14, 1-[2-(2,5-Dichloro-benzoylamino)-ethyl]-1H-[1,2,3]triazole-4-carboxylic acid [cyano-(4-ethyl-phenyl)-methyl]-amide], the IC50 was at least 20 µM on β 1c (caspase-like) (setting [3]); at least 20 µM in assay [1] (setting [4]); at least 20 µM on β 1i (caspase-like) (setting [5]); 190 nM in assay [2]; at least 20 µM in the assay on β 2c/2i (trypsin-like).

Turning to `CCc1ccc(C(C#N)NC(=O)c2cn(CC/N=C(\SC)c3ccc(OC)c(OC)c3OC)nn2)cc1` (stereo not drawn) [Example 87, N-[2-(4-{[Cyano-(4-ethyl-phenyl)-methyl]-carbamoyl}-[1,2,3]triazol-1-yl)-ethyl]-2,3,4-trimethoxy-thiobenzimidic acid methyl ester], the IC50 on β 1c (caspase-like) (setting [3]) was at least 20 µM; in assay [1] (setting [4]), 8.55 µM; on β 1i (caspase-like) (setting [5]), at least 20 µM; in assay [2] it was 2470 nM; with β 2c/2i (trypsin-like), at least 20 µM.

As to `CCc1ccc(C(C#N)NC(=O)c2cn(CCNC(=O)c3cc(S(C)(=O)=O)ccc3OC)nn2)cc1` (stereo not drawn) [Example 42, 1-[2-(5-Methanesulfonyl-2-methoxy-benzoylamino)-ethyl]-1H-[1,2,3]triazole-4-carboxylic acid [cyano-(4-ethyl-phenyl)-methyl]-amide], the IC50 at β 1c (caspase-like) (setting [3]) was at least 20 µM; in assay [1] (setting [4]), at least 20 µM; at β 1i (caspase-like) (setting [5]), at least 20 µM; in assay [2], 3150 nM; in the assay on β 2c/2i (trypsin-like), at least 20 µM.

For the molecule `COc1ccc(C(=O)CNC(=O)c2cn(CCNC(=O)c3ccc(OC)c(OC)c3OC)nn2)cc1` [Example 77, 1-[2-(2,3,4-Trimethoxy-benzoylamino)-ethyl]-1H-[1,2,3]triazole-4-carboxylic acid [2-(4-methoxy-phenyl)-2-oxo-ethyl]-amide], the IC50 on β 1c (caspase-like) (setting [3]) was at least 20 µM; in assay [1] (setting [4]) it was at least 20 µM; at β 1i (caspase-like) (setting [5]) it was at least 20 µM; in assay [2], 8750 nM; with β 2c/2i (trypsin-like) it was at least 20 µM.

Turning to `CCc1ccc(C(C#N)NC(=O)c2cn(CCNC(=O)c3ccc(C(F)(F)F)cc3F)nn2)cc1` (stereo not drawn) [Example 38, 1-[2-(2-Fluoro-4-trifluoromethyl-benzoylamino)-ethyl]-1H-[1,2,3]triazole-4-carboxylic acid [cyano-(4-ethyl-phenyl)-methyl]-amide], the IC50 was at least 20 µM at β 1c (caspase-like) (setting [3]); at least 20 µM in assay [1] (setting [4]); at least 20 µM on β 1i (caspase-like) (setting [5]); 17 nM in assay [2]; at least 20 µM with β 2c/2i (trypsin-like).

As to `COc1ccc(C(=O)NCCn2cc(C(=O)NC(C#N)c3ccc(C(F)(F)F)cc3)nn2)c(F)c1` (stereo not drawn) [Example 74, 1-[2-(2-Fluoro-4-methoxy-benzoylamino)-ethyl]-1H-[1,2,3]triazole-4-carboxylic acid [cyano-(4-trifluoromethyl-phenyl)-methyl]-amide], the half-maximal inhibitory concentration (IC50) on β 1c (caspase-like) (setting [3]) is at least 20 µM; in assay [1] (setting [4]), at least 20 µM; on β 1i (caspase-like) (setting [5]) it was at least 20 µM; in assay [2], 1740 nM; in the assay with β 2c/2i (trypsin-like) it was at least 20 µM.

For the molecule `CCc1ccc(C(C#N)NC(=O)c2cn(CCNC(=O)c3cccc(OC)n3)nn2)cc1` (stereo not drawn) [Example 26, 6-Methoxy-pyridine-2-carboxylic acid [2-(4-{[cyano-(4-ethyl-phenyl)-methyl]-carbamoyl}-[1,2,3]triazol-1-yl)-ethyl]-amide], the IC50 was at least 20 µM at β 1c (caspase-like) (setting [3]); at least 20 µM in assay [1] (setting [4]); at least 20 µM on β 1i (caspase-like) (setting [5]); 5380 nM in assay [2]; at least 20 µM in the assay on β 2c/2i (trypsin-like).

On to `CCc1ccc(C(C#N)NC(=O)c2cn(CCNC(=O)CC3(O)Cc4ccccc4C3)nn2)cc1` (stereo not drawn) [Example 22, 1-{2-[2-(2-Hydroxy-indan-2-yl)-acetylamino]-ethyl}-1H-[1,2,3]triazole-4-carboxylic acid [cyano-(4-ethyl-phenyl)-methyl]-amide], for which the IC50 on β 1c (caspase-like) (setting [3]) is at least 20 µM; in assay [1] (setting [4]), at least 20 µM; on β 1i (caspase-like) (setting [5]), at least 20 µM; in assay [2] it was 9950 nM; in the assay on β 2c/2i (trypsin-like), at least 20 µM.

Turning to `COc1ccc(C(=O)NCCn2cc(C(=O)NC(C#N)c3ccc(Br)cc3)nn2)c(OC)c1OC` (stereo not drawn) [Example 54, 1-[2-(2,3,4-Trimethoxy-benzoylamino)-ethyl]-1H-[1,2,3]triazole-4-carboxylic acid [(4-bromo-phenyl)-cyano-methyl]-amide], the IC50 on β 1c (caspase-like) (setting [3]) was at least 20 µM; in assay [1] (setting [4]), at least 20 µM; on β 1i (caspase-like) (setting [5]), at least 20 µM; in assay [2] it was 101 nM; in the assay with β 2c/2i (trypsin-like) it was at least 20 µM.

Consider `COc1ccc(C(=O)NCCn2cc(C(=O)N[C@@H](CCc3ccccc3)C(=O)O)nn2)c(OC)c1OC` [Example 83, (S)-4-Phenyl-2-({1-[2-(2,3,4-trimethoxy-benzoylamino)-ethyl]-1H-[1,2,3]triazole-4-carbonyl}-amino)-butyric acid], for which the IC50 was at least 20 µM at β 1c (caspase-like); 8.36 µM in assay [1]; at least 20 µM against β 1i (caspase-like); 921 nM in assay [2]; at least 20 µM with β 2c/2i (trypsin-like).

With `CCc1ccc(CNC(=O)c2cn(CCNC(=O)c3ccc(OC)c(OC)c3OC)nn2)cc1` [Example 7, 1-[2-(2,3,4-Trimethoxy-benzoylamino)-ethyl]-1H-[1,2,3]triazole-4-carboxylic acid 4-ethyl-benzylamide], the IC50 is at least 20 µM on β 1c (caspase-like) (setting [3]); at least 20 µM in assay [1] (setting [4]); at least 20 µM on β 1i (caspase-like) (setting [5]); 1160 nM in assay [2]; at least 20 µM in the assay on β 2c/2i (trypsin-like).

With `CCc1ccc(C(C#N)NC(=O)c2cn(CCNC(=O)c3ccc(C(F)(F)F)cc3OC)nn2)cc1` (stereo not drawn) [Example 23, 1-[2-(2-Methoxy-4-trifluoromethyl-benzoylamino)-ethyl]-1H-[1,2,3]triazole-4-carboxylic acid [cyano-(4-ethyl-phenyl)-methyl]-amide], the IC50 on β 1c (caspase-like) (setting [3]) is at least 20 µM; in assay [1] (setting [4]), 16.2 µM; at β 1i (caspase-like) (setting [5]), at least 20 µM; in assay [2], 28 nM; in the assay on β 2c/2i (trypsin-like) it was at least 20 µM.

Take `CCc1ccc(C(C#N)NC(=O)c2cn(CCNC(=O)c3ccc(OC(F)(F)F)cc3OC)nn2)cc1` (stereo not drawn) [Example 11, 1-[2-(2-Methoxy-4-trifluoromethoxy-benzoylamino)-ethyl]-1H-[1,2,3]triazole-4-carboxylic acid [cyano-(4-ethyl-phenyl)-methyl]-amide]: the IC50 at β 1c (caspase-like) (setting [3]) is at least 20 µM; in assay [1] (setting [4]), 9.98 µM; at β 1i (caspase-like) (setting [5]), at least 20 µM; in assay [2], 106 nM; in the assay with β 2c/2i (trypsin-like) it was at least 20 µM.

`COc1ccc(C(=O)NCCn2cc(C(=O)NC(C#N)c3ccc(Cl)cc3)nn2)c(OC)c1OC` (stereo not drawn) [Example 68, 1-[2-(2,3,4-Trimethoxy-benzoylamino)-ethyl]-1H-[1,2,3]triazole-4-carboxylic acid [(4-chloro-phenyl)-cyano-methyl]-amide]: the IC50 was at least 20 µM on β 1c (caspase-like) (setting [3]); 16.8 µM in assay [1] (setting [4]); at least 20 µM on β 1i (caspase-like) (setting [5]); 327 nM in assay [2]; at least 20 µM in the assay with β 2c/2i (trypsin-like).
